# Assay results reported in ChEMBL document CHEMBL1151404, “Modification and evaluation of the potato disc assay and antitumor screening of euphorbiaceae seeds” (1982).
# Tests used:
# Assay type in all cases: functional
# [1] = test system: Agrobacterium tumefaciens; experiment: Antitumor activity against Agrobacterium tumefaciens B6-induced tumor formation at 10 ug/disk after 12 days by potato disk assay; settings: B6, 288 h
# [2] = test system: Agrobacterium tumefaciens; experiment: Antitumor activity against Agrobacterium tumefaciens B6-induced tumor formation at 5 ug/disk after 12 days by potato disk assay; settings: B6, 288 h
# [3] = test system: Agrobacterium tumefaciens; experiment: Antitumor activity against Agrobacterium tumefaciens B6-induced tumor formation at 2.5 ug/disk after 12 days by potato disk assay; settings: B6, 288 h
# P388 = experiment: Antitumor activity against mouse P388 cells xenografted mouse assessed as increase in life span relative to control
# [4] = test system: Agrobacterium tumefaciens; experiment: Antitumor activity against Agrobacterium tumefaciens B6-induced tumor formation at 1.5 ug/disk after 12 days by potato disk assay; settings: B6, 288 h
Structure (SMILES),inhibition at 10 µg/disc [1],inhibition at 5 µg/disc [2],inhibition at 2.5 µg/disc [3],T/C (P388),inhibition at 1.5 µg/disc [4]
COc1ccc(C[C@H]2C(=O)N[C@@H](C)C(=O)N(C)[C@@H]3C(=O)N(C)[C@@H](Cc4ccc(O)c(c4)Oc4ccc(cc4)[C@@H]3O)C(=O)N[C@@H](C)C(=O)N[C@@H](C)C(=O)N2C)cc1 [BOUVARDIN],-40%,-15%,14%,188%,–
COC(=O)C[C@](O)(CCCC(C)(C)O)C(=O)O[C@@H]1C(OC)=C[C@]23CCCN2CCc2cc4c(cc2[C@H]13)OCO4 [OMACETAXINE MEPESUCCINATE],-79%,-64%,-72%,238%,–
COc1cc2cc(c1Cl)N(C)C(=O)C[C@H](OC(=O)[C@H](C)N(C)C(=O)C(C)C)[C@]1(C)O[C@H]1[C@H](C)[C@@H]1C[C@@](O)(NC(=O)O1)[C@H](OC)/C=C/C=C(\C)C2OC (some centres not stated) [TREWIASINE],-100%,-100%,-100%,168%,-100%
CC[C@]1(O)C[C@H]2CN(CCc3c([nH]c4ccccc34)[C@@](C(=O)OC)(c3cc4c(cc3OC)N(C=O)[C@H]3[C@@](O)(C(=O)OC)[C@H](OC(C)=O)[C@]5(CC)C=CCN6CC[C@]43[C@@H]65)C2)C1 [VINCRISTINE],-44%,-36%,-17%,242%,–
